Earlier results as cited in patent publication US12421495B2, “Compositions and methods for selective phagocytosis of human cancer cells” (THE TRUSTEES OF THE UNIVERSITY OF PENNSYLVANIA, priority 2015, dated 2025).

Tested on: tdTomato A549 tumors
Settings: same tumor model; Nair et al. 2016

CC(=O)O[C@H]1C(=O)[C@@]2(C)[C@H]([C@H](OC(=O)c3ccccc3)[C@]3(O)C[C@H](OC(=O)[C@H](O)[C@@H](NC(=O)c4ccccc4)c4ccccc4)C(C)=C1C3(C)C)[C@]1(OC(C)=O)CO[C@@H]1C[C@@H]2O [Paclitaxel]
tumor shrinkage by day 10: −25%
